Laboratory results as given in patent US20240384268A1, “Oligonucleotides” (Hudson Institute of Medical Research, priority 2021, published 2024).
In the oligonucleotide strings, read from the 5' end, every base follows the letter of its sugar. An asterisk marks phosphorothioate; unmarked linkages are phosphodiester. Other units and linkages are bracketed, terminal groups are in braces. A string of capitals states the bases alone. d = 2'-deoxy (DNA); m = 2'-O-methyl

Target: T1, human TLR9 (Homo sapiens, UniProt Q9NR96)
T1 construct: HA; host or cells: 293XL-hTLR9-HA (HEK293)
T1 sequence (Q9NR96 26-1032): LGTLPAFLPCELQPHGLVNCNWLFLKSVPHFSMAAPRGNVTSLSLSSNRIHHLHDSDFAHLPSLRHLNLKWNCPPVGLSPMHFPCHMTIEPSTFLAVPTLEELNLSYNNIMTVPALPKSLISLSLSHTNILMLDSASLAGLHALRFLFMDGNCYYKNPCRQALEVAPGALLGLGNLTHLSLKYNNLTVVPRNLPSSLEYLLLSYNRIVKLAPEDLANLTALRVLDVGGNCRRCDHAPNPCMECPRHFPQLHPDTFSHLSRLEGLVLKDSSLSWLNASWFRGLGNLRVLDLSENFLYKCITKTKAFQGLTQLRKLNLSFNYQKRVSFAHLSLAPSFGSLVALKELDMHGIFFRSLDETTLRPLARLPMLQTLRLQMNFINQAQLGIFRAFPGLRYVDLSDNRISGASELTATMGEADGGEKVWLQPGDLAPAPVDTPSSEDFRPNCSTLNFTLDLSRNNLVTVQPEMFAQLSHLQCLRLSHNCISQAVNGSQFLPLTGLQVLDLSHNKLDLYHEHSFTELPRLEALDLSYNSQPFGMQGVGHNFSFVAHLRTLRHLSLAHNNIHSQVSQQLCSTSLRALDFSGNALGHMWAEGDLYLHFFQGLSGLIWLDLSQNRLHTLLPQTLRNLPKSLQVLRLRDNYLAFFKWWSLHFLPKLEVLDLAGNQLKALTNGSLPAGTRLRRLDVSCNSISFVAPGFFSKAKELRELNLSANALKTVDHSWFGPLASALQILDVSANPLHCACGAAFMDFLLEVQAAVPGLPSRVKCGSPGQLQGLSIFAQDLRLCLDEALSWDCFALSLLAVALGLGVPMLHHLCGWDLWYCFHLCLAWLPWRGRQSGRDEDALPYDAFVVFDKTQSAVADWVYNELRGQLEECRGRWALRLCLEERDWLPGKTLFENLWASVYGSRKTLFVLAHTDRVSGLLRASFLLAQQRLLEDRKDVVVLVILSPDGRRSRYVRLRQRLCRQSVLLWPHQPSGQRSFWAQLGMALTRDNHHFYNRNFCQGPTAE
Test: HEK-TLR9 NF-κB-luciferase reporter, ODN2006 stimulation
Assay type: cell-based
Settings: for TLR9-500 nM: averaged NF-κB-Luciferase relative to ODN2006: HEK-TLR9, 500 nM ASO 45 min, then 200 nM ODN2006 overnight, percentage of ODN2006 only; for TLR9 100 nM: MOE-modified ASO at 100 nM; for TLR9 100 nM / TLR9 500 nM: averaged NF-κB-Luciferase relative to ODN2006 condition; for TLR9 500 nM: MOE-modified ASO at 500 nM

| Substance | TLR9-500 nM: averaged NF-κB-Luciferase relative to ODN2006 | TLR9 100 nM | TLR9 500 nM |
| --- | --- | --- | --- |
| mA*mC*mC*mC*mU*T*C*T*C*T*C*T*G*G*T*mC*mC*mC*mA*mU (mA*mC*mC*mC*mU*dT*dC*dT*dC*dT*dC*dT*dG*dG*dT*mC*mC*mC*mA*mU; antisense) [[LINC-PINT]115] | 32.00% |  |  |
| mA*mG*mC*mC*mG*A*A*C*A*G*A*A*G*G*A*mG*mC*mG*mU*mC (AGCCGAACAGAAGGAGCGUC; sugars from the 5' end m5 d10 m5, all phosphorothioate, methylation of C not given here) [[LINC-PINT]587 KL] | 57.46% |  |  |
| mA*mG*mA*mU*mU*A*T*C*T*T*C*T*T*T*T*mA*mA*mU*mU*mU (AGAUUATCTTCTTTTAAUUU; sugars from the 5' end m5 d10 m5, all phosphorothioate, methylation of C not given here) [[CDKN2B-AS1]2130] | 78.72% |  |  |
| mG*mA*mA*mA*mA*G*A*T*T*A*T*C*T*T*C*mU*mU*mU*mU*mA (GAAAAGATTATCTTCUUUUA; sugars from the 5' end m5 d10 m5, all phosphorothioate, methylation of C not given here) [[CDKN2B-AS1]2134] | 61.11% |  |  |
| GCCCATCCATGAGGTCCTGG (antisense; 2'-MOE modified, pattern not given here) [CTNN2B-2545 MOE] |  | 0.324 | 0.175 |
| mA*mA*mA*mA*mG*A*T*T*A*T*C*T*T*C*T*mU*mU*mU*mA*mA (AAAAGATTATCTTCTUUUAA; sugars from the 5' end m5 d10 m5, all phosphorothioate, methylation of C not given here) [[CDKN2B-AS1]2133] | 80.95% |  |  |
| AGTCGTAGTTGCTTCCTAAC (antisense; 2'-MOE modified, pattern not given here) [MB21D1-1181 MOE] |  | 0.527 | 0.341 |
| mG*mU*mC*mA*mA*A*C*C*T*A*G*A*A*A*G*mA*mA*mG*mC*mA (mG*mU*mC*mA*mA*dA*dC*dC*dT*dA*dG*dA*dA*dA*dG*mA*mA*mG*mC*mA; antisense) [[CDKN2B-AS1]1528] | 68.13% |  |  |
| mC*mC*mA*mU*mG*T*C*C*C*A*G*G*C*C*T*mC*mC*mA*mG*mU (CCAUGTCCCAGGCCTCCAGU; sugars from the 5' end m5 d10 m5, all phosphorothioate, methylation of C not given here) [[CDKN2B-AS1]2227] | 48.79% |  |  |
| mU*mG*mA*mC*mA*T*T*T*C*G*T*G*G*C*T*mC*mC*mU*mA*mC (mU*mG*mA*mC*mA*dT*dT*dT*dC*dG*dT*dG*dG*dC*dT*mC*mC*mU*mA*mC; antisense) [[LINC-PINT]523 KL] | 118.29% |  |  |
| mU*mU*mA*mA*mA*T*A*A*T*C*T*A*G*T*T*mU*mG*mA*mA*mG (UUAAATAATCTAGTTUGAAG; sugars from the 5' end m5 d10 m5, all phosphorothioate, methylation of C not given here) [[CDKN2B-AS1]132] | 98.18% |  |  |
| mG*mA*mU*mG*mG*T*T*C*C*A*G*T*C*C*C*mU*mC*mU*mU*mC (GAUGGTTCCAGTCCCUCUUC; antisense; sugars from the 5' end m5 d10 m5, all phosphorothioate, methylation of C not given here) [[LINC-PINT]1497.1] | 80.47% |  |  |
| mU*mG*mG*mC*mG*T*A*G*T*T*T*C*T*C*T*mU*mC*mC*mU*mC (mU*mG*mG*mC*mG*dT*dA*dG*dT*dT*dT*dC*dT*dC*dT*mU*mC*mC*mU*mC; antisense) [[LINC-PINT]937.1] | 79.89% |  |  |
| mG*mU*mC*mU*mC*C*T*C*C*A*C*A*C*C*C*mU*mU*mC*mU*mC (mG*mU*mC*mU*mC*dC*dT*dC*dC*dA*dC*dA*dC*dC*dC*mU*mU*mC*mU*mC; antisense) [[LINC-PINT]126] | 77.09% |  |  |
| mU*mC*mU*mC*mU*G*G*T*C*C*C*A*T*C*C*mC*mU*mU*mC*mU (UCUCUGGTCCCATCCCUUCU; antisense; sugars from the 5' end m5 d10 m5, all phosphorothioate, methylation of C not given here) [[LINC-PINT]108] | 100.51% |  |  |
| TGGGCTGGAATCCGAGTTAT (antisense; 2'-MOE modified, pattern not given here) [EGFR-4705 MOE] |  | 0.443 | 0.241 |
| mC*mA*mA*mG*mC*C*C*C*A*G*C*G*T*T*C*mC*mU*mC*mC*mG (mC*mA*mA*mG*mC*dC*dC*dC*dA*dG*dC*dG*dT*dT*dC*mC*mU*mC*mC*mG; antisense) [[LINC-PINT]83.1] | 93.79% |  |  |
| mC*mA*mC*mU*mG*T*A*T*T*T*T*A*T*T*A*mC*mA*mG*mA*mA (mC*mA*mC*mU*mG*dT*dA*dT*dT*dT*dT*dA*dT*dT*dA*mC*mA*mG*mA*mA; antisense) [[LINC-PINT]2990] | 117.42% |  |  |
| mC*mA*mG*mG*mC*C*T*C*C*A*G*T*G*T*C*mU*mU*mC*mU*mC (mC*mA*mG*mG*mC*dC*dT*dC*dC*dA*dG*dT*dG*dT*dC*mU*mU*mC*mU*mC; antisense) [[CDKN2B-AS1]2219] | 66.99% |  |  |
| mU*mG*mU*mU*mU*C*C*C*C*G*G*A*G*A*G*mC*mA*mA*mU*mG (UGUUUCCCCGGAGAGCAAUG; antisense; sugars from the 5' end m5 d10 m5, all phosphorothioate, methylation of C not given here) [[LINC-PINT]501 KL] | 71.47% |  |  |
| mU*mU*mG*mU*mG*A*A*A*A*G*A*T*T*A*T*mC*mU*mU*mC*mU (mU*mU*mG*mU*mG*dA*dA*dA*dA*dG*dA*dT*dT*dA*dT*mC*mU*mU*mC*mU) [[CDKN2B-AS1]2138] | 61.15% |  |  |
| mA*mG*mA*mA*mA*G*A*A*G*C*A*A*A*G*A*mU*mU*mC*mA*mA (AGAAAGAAGCAAAGAUUCAA; sugars from the 5' end m5 d10 m5, all phosphorothioate, methylation of C not given here) [[CDKN2B-AS1]1519] | 68.12% |  |  |
| mA*mA*mU*mA*mU*C*T*G*C*T*G*C*C*C*A*mC*mC*mU*mU*mC (mA*mA*mU*mA*mU*dC*dT*dG*dC*dT*dG*dC*dC*dC*dA*mC*mC*mU*mU*mC; antisense) [[CDKN2B-AS1]832] | 70.72% |  |  |
| mG*mG*mA*mU*mU*A*A*A*A*C*A*G*A*T*T*mA*mA*mU*mA*mC (GGAUUAAAACAGATTAAUAC; sugars from the 5' end m5 d10 m5, all phosphorothioate, methylation of C not given here) [[CDKN2B-AS1]1774] | 27.79% |  |  |
| mC*mC*mC*mU*mA*A*T*G*C*T*T*T*C*C*T*mC*mU*mC*mC*mA (mC*mC*mC*mU*mA*dA*dT*dG*dC*dT*dT*dT*dC*dC*dT*mC*mU*mC*mC*mA; antisense) [[LINC-PINT1877 KL] | 86.47% |  |  |
| GCTGACAAAGATTCACTGGT (antisense; 2'-MOE modified, pattern not given here) [HPRT-1353 MOE] |  | 0.653 | 0.654 |
| mU*mA*mA*mA*mA*T*A*A*G*G*G*G*A*A*T*mA*mG*mG*mG*mG (mU*mA*mA*mA*mA*dT*dA*dA*dG*dG*dG*dG*dA*dA*dT*mA*mG*mG*mG*mG) [[CDKN2B-AS1]80] | 64.58% |  |  |
| mA*mG*mG*mC*mC*T*C*C*A*G*T*G*T*C*T*mU*mC*mU*mC*mC (mA*mG*mG*mC*mC*dT*dC*dC*dA*dG*dT*dG*dT*dC*dT*mU*mC*mU*mC*mC; antisense) [[CDKN2B-AS1]2218] | 81.24% |  |  |
| mC*mA*mU*mC*mC*C*T*T*C*T*G*C*T*G*C*mC*mA*mA*mG*mC (mC*mA*mU*mC*mC*dC*dT*dT*dC*dT*dG*dC*dT*dG*dC*mC*mA*mA*mG*mC; antisense) [[LINC-PINT]98] | 65.09% |  |  |
| mA*mG*mG*mA*mU*T*A*A*A*A*C*A*G*A*T*mU*mA*mA*mU*mA (mA*mG*mG*mA*mU*dT*dA*dA*dA*dA*dC*dA*dG*dA*dT*mU*mA*mA*mU*mA) [[CDKN2B-AS1] 1775] | 63.48% |  |  |
